BindingDB's records for doi:10.7270/Q2RF5SF5 (Burnham Center For Chemical Genomics, 2008)

Target: Heat shock 70 kDa protein 1A (Homo sapiens, UniProt V9GZ37)
Assay: small-molecule inhibition of Hsp70 – biochemical, TR-FRET (AID 786)

Sequence of Heat shock 70 kDa protein 1A (V9GZ37 whole entry): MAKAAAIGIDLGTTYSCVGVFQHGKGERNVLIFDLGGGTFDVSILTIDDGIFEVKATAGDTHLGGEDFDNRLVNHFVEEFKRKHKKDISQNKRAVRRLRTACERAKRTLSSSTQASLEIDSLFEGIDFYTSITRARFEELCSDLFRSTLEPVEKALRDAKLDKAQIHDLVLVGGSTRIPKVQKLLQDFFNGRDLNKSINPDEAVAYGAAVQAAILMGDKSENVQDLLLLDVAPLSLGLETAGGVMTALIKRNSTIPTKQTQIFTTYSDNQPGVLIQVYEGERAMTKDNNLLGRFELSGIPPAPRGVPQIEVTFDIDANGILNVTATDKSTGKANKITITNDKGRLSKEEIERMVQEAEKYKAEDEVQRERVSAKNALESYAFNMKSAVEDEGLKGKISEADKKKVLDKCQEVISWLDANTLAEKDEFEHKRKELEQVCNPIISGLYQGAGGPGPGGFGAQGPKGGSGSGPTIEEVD

IC50 | SMILES
> 100 µM | CC(=O)N1CCC2(CC1)c1c(n[nH]c1C)OC(=N)C2C#N (configuration not stated) [6-azanyl-1'-ethanoyl-3-methyl-spiro[2H-pyrano[2,3-c]pyrazole-4,4'-piperidine]-5-carbonitrile]
17.4 µM | C=c1[nH]n(-c2cccc(C(=O)O)c2)c(=O)c1=CC=Cc1ccco1 [SMR000113614]
